From the supplement of paper PMC12463676, “Small-molecule dissolution of stress granules by redox modulation benefits ALS models” (Nature Chemical Biology, 2025)

Experiments:
[1] = compound: NC(=O)CCCCC1CCSS1 [lipoamide]; assay: thermal stability z-score vs DMSO; higher = more thermally stabilized by treatment; details: HeLa, lipoamide concentration 100 µM
Procedure: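 Cellular thermal proteome profiling in HeLa cells. Cells were treated with 100 µM lipoamide for 1 h, with or without 1 mM arsenate for a further 1 h, then heated to ten temperatures (37-66.3 °C), and soluble protein was quantified by TMT mass spectrometry relative to 0.1% DMSO controls. The thermal stability score (sum of log2 fold changes minus the abundance score) was transformed to a z-score; mean of n = 3 experiments.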

[2] = compound: O=[As]([O-])(O)O.[K+] [potassium arsenate]; assay: as above; details: HeLa; arsenate concentration 1 mM
Procedure: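 Cellular thermal proteome profiling in HeLa cells treated with 1 mM arsenate for 1 h (DMSO pretreatment), heated to ten temperatures (37-66.3 °C). Soluble protein was quantified by TMT mass spectrometry relative to DMSO controls; the thermal stability score was transformed to a z-score; mean of n = 3 experiments.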

[3] = arsenate co-treatment: 1 mM arsenate 1 h
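Further: each temperature applied for 3 min, abundance score taken as mean log2 fold change at the two lowest temperatures, z-score obtained by mean subtraction and division by SD.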

COMMD10 (UniProt Q9Y6G5)
Sequence of UniProt Q9Y6G5 (Q9Y6G5 whole entry): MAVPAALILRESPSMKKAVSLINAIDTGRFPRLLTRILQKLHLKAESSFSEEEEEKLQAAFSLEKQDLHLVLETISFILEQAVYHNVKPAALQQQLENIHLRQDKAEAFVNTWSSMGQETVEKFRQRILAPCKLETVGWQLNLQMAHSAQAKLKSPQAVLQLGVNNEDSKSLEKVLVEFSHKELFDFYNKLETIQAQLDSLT
thermal stability z-score [1, 3]: 0.107
thermal stability z-score ([1]; arsenate co-treatment: none): 0.18
thermal stability z-score [2]: 0.307

AGL (UniProt P35573)
thermal stability z-score [1, 3]: 0.414
thermal stability z-score ([1]; arsenate co-treatment: none): 0.398
thermal stability z-score [2]: 0.0621

ANXA1 (UniProt P04083)
thermal stability z-score [1, 3]: 0.957
thermal stability z-score ([1]; arsenate co-treatment: none): 0.83
thermal stability z-score [2]: -0.37

BOP1 (UniProt Q14137)
thermal stability z-score [1, 3]: -1.64
thermal stability z-score ([1]; arsenate co-treatment: none): -0.108
thermal stability z-score [2]: 0.0419

FTH1 (UniProt P02794)
thermal stability z-score [1, 3]: 0.266
thermal stability z-score ([1]; arsenate co-treatment: none): 0.204
thermal stability z-score [2]: -2.18

PIGS (UniProt Q96S52)
thermal stability z-score [1, 3]: -2.47
thermal stability z-score ([1]; arsenate co-treatment: none): -2.43
thermal stability z-score [2]: 0.44

RBBP7 (UniProt Q16576)
thermal stability z-score [1, 3]: 0.794
thermal stability z-score ([1]; arsenate co-treatment: none): 0.539
thermal stability z-score [2]: -0.595

PUS7L (UniProt Q9H0K6)
thermal stability z-score [1, 3]: 0.3
thermal stability z-score ([1]; arsenate co-treatment: none): 0.174
thermal stability z-score [2]: -0.0157

SGPP1 (UniProt Q9BX95)
thermal stability z-score [1, 3]: 0.332
thermal stability z-score ([1]; arsenate co-treatment: none): -0.299
thermal stability z-score [2]: -0.0282

NRDC (UniProt O43847)
Sequence of UniProt O43847 (O43847 whole entry): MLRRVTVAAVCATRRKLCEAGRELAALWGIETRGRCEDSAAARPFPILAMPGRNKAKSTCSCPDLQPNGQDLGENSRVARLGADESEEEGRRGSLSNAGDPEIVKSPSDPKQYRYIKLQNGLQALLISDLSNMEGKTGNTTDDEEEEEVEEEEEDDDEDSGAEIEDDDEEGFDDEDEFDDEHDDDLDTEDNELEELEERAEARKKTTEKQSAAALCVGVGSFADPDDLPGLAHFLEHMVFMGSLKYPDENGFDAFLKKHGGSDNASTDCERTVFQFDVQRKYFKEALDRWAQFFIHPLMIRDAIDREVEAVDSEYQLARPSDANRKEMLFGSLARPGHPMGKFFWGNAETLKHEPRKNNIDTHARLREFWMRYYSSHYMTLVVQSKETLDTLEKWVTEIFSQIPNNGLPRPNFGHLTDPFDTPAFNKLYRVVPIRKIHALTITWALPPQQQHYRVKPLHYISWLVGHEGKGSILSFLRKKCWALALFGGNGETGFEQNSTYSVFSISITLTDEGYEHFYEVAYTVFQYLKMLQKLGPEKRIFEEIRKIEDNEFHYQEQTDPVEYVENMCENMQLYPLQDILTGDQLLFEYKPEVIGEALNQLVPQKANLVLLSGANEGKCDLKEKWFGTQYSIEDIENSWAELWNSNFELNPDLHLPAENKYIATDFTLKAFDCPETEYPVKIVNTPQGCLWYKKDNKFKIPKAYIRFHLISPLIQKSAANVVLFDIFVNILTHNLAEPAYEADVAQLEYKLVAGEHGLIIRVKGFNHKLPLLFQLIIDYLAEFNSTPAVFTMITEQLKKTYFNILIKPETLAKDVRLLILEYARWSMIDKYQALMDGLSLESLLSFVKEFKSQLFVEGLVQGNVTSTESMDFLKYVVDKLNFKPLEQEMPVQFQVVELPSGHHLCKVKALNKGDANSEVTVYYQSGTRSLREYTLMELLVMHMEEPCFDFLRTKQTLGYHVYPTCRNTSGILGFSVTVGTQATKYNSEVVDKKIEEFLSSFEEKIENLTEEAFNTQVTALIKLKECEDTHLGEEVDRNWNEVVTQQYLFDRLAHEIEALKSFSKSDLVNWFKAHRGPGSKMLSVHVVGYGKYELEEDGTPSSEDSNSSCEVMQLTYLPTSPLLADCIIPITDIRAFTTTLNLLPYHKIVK
thermal stability z-score [1, 3]: -0.0123
thermal stability z-score ([1]; arsenate co-treatment: none): -0.0343
thermal stability z-score [2]: 0.364

KXD1 (UniProt Q9BQD3)
thermal stability z-score [1, 3]: 0.543
thermal stability z-score ([1]; arsenate co-treatment: none): 0.711
thermal stability z-score [2]: 0.28

NAPRT (UniProt Q6XQN6)
thermal stability z-score [1, 3]: -0.379
thermal stability z-score ([1]; arsenate co-treatment: none): -0.0584
thermal stability z-score [2]: -0.197

CHD1 (UniProt O14646)
Sequence of UniProt O14646 (O14646 whole entry): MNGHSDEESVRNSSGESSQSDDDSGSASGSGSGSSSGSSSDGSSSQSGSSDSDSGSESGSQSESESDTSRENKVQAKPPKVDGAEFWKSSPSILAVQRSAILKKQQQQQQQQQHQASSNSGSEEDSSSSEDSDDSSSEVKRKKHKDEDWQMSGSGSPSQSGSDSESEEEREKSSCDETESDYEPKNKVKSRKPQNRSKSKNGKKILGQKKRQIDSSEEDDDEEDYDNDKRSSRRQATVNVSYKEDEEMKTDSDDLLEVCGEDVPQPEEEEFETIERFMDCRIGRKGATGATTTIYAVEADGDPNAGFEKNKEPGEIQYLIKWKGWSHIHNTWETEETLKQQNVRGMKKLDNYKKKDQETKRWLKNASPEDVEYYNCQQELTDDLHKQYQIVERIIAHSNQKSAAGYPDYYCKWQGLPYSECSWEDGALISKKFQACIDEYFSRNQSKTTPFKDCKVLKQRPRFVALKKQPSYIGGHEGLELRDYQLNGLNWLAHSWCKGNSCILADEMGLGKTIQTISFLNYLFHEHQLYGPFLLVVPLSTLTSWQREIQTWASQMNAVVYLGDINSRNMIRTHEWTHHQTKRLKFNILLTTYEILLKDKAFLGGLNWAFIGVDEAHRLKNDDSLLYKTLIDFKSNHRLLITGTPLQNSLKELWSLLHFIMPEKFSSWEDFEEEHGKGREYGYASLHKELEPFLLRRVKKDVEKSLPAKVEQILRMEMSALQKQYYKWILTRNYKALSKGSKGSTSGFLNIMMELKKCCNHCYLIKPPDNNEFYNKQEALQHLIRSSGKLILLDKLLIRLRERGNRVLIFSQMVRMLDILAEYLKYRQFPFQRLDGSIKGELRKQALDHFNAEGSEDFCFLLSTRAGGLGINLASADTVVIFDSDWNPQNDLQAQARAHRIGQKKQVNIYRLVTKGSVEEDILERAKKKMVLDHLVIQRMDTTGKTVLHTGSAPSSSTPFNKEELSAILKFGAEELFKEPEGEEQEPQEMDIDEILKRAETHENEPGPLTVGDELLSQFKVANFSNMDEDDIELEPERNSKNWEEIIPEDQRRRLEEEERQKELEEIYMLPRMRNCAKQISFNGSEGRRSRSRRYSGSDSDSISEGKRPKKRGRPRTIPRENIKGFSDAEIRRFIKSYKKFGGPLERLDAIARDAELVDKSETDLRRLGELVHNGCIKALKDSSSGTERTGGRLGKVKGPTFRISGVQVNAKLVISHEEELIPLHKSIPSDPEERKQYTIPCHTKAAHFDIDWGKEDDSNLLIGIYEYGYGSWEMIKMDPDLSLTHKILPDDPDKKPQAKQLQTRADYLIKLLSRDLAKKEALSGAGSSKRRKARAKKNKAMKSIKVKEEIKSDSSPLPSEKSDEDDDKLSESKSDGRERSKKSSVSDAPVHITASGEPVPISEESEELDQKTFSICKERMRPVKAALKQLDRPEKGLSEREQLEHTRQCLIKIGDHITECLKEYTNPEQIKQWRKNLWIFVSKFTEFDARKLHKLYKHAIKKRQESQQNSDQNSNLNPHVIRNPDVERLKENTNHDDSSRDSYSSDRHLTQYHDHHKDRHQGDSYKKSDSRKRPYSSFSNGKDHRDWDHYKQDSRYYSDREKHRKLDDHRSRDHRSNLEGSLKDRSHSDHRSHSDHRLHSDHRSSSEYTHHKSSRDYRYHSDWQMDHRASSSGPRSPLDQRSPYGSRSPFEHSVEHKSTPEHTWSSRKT
thermal stability z-score [1, 3]: -0.0735
thermal stability z-score ([1]; arsenate co-treatment: none): 0.209
thermal stability z-score [2]: -0.504

POLB (UniProt P06746)
thermal stability z-score [1, 3]: -0.0159
thermal stability z-score ([1]; arsenate co-treatment: none): -0.17
thermal stability z-score [2]: -0.111

GK (UniProt P32189)
thermal stability z-score [1, 3]: 0.371
thermal stability z-score ([1]; arsenate co-treatment: none): 0.195
thermal stability z-score [2]: 0.46

ALKBH5 (UniProt Q6P6C2)
thermal stability z-score [1, 3]: 1.79
thermal stability z-score ([1]; arsenate co-treatment: none): -0.205
thermal stability z-score [2]: 2.96

GKAP1 (UniProt Q5VSY0)
thermal stability z-score [1, 3]: 0.161
thermal stability z-score ([1]; arsenate co-treatment: none): 0.36
thermal stability z-score [2]: -0.0462

CYCS (UniProt P99999)
thermal stability z-score [1, 3]: 0.873
thermal stability z-score ([1]; arsenate co-treatment: none): 0.819
thermal stability z-score [2]: -0.152

ATP6V1A (UniProt P38606)
thermal stability z-score [1, 3]: -0.368
thermal stability z-score ([1]; arsenate co-treatment: none): -0.529
thermal stability z-score [2]: -0.613

PRELID3B (UniProt Q9Y3B1)
thermal stability z-score [1, 3]: -0.72
thermal stability z-score ([1]; arsenate co-treatment: none): -0.844
thermal stability z-score [2]: -0.684

TARSL2 (UniProt A2RTX5)
thermal stability z-score [1, 3]: -0.396
thermal stability z-score ([1]; arsenate co-treatment: none): 0.561
thermal stability z-score [2]: 0.0722

CGGBP1 (UniProt Q9UFW8)
thermal stability z-score [1, 3]: -0.266
thermal stability z-score ([1]; arsenate co-treatment: none): -0.574
thermal stability z-score [2]: -0.0749

CLTA (UniProt P09496)
thermal stability z-score [1, 3]: 1.35
thermal stability z-score ([1]; arsenate co-treatment: none): 1.54
thermal stability z-score [2]: 0.655

RABGEF1 (UniProt Q9UJ41)
thermal stability z-score [1, 3]: -0.0343
thermal stability z-score ([1]; arsenate co-treatment: none): -0.0874
thermal stability z-score [2]: -0.113

C1S (UniProt P09871)
thermal stability z-score [1, 3]: 0.0855
thermal stability z-score ([1]; arsenate co-treatment: none): -0.147
thermal stability z-score [2]: 0.0687

SH3RF1 (UniProt Q7Z6J0)
thermal stability z-score [1, 3]: -0.0346
thermal stability z-score ([1]; arsenate co-treatment: none): 0.00665
thermal stability z-score [2]: -0.327

VCP (UniProt P55072)
thermal stability z-score [1, 3]: 0.257
thermal stability z-score ([1]; arsenate co-treatment: none): 0.118
thermal stability z-score [2]: -0.172

DNAJA1 (UniProt P31689)
Sequence of UniProt P31689 (P31689 whole entry): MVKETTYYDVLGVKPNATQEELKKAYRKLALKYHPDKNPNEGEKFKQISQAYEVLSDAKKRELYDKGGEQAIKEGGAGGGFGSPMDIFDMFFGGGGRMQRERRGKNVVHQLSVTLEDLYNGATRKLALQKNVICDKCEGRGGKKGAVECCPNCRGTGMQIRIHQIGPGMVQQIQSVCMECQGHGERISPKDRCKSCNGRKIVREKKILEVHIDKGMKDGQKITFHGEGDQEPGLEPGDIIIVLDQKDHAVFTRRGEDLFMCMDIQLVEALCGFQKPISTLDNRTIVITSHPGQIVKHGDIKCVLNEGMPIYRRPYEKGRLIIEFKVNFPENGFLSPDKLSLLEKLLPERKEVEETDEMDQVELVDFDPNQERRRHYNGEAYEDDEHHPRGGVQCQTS
thermal stability z-score [1, 3]: -1.05
thermal stability z-score ([1]; arsenate co-treatment: none): -0.818
thermal stability z-score [2]: -0.452

NRBP1 (UniProt Q9UHY1)
thermal stability z-score [1, 3]: -0.349
thermal stability z-score ([1]; arsenate co-treatment: none): -0.151
thermal stability z-score [2]: 0.23

ADI1 (UniProt Q9BV57)
thermal stability z-score [1, 3]: 0.768
thermal stability z-score ([1]; arsenate co-treatment: none): 0.913
thermal stability z-score [2]: -0.317

RLIM (UniProt Q9NVW2)
thermal stability z-score [1, 3]: -0.546
thermal stability z-score ([1]; arsenate co-treatment: none): -0.0531
thermal stability z-score [2]: 0.107

MTMR3 (UniProt Q13615)
thermal stability z-score [1, 3]: -0.301
thermal stability z-score ([1]; arsenate co-treatment: none): -0.594
thermal stability z-score [2]: -1.04

CHST14 (UniProt Q8NCH0)
Sequence of UniProt Q8NCH0 (Q8NCH0 whole entry): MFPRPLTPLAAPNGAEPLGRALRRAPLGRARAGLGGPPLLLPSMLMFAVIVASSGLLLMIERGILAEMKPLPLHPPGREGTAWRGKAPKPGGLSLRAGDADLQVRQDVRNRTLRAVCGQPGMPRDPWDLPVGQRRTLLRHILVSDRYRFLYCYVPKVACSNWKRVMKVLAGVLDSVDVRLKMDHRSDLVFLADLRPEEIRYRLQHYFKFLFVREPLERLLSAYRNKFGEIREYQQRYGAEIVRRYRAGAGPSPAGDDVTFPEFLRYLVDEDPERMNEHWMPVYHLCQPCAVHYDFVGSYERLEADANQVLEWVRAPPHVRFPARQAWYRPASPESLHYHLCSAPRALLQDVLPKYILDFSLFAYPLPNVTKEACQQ
thermal stability z-score [1, 3]: -0.943
thermal stability z-score ([1]; arsenate co-treatment: none): -0.167
thermal stability z-score [2]: -0.359

DBT (UniProt P11182)
thermal stability z-score [1, 3]: -0.65
thermal stability z-score ([1]; arsenate co-treatment: none): -0.0292
thermal stability z-score [2]: -1.75

GMPPB (UniProt Q9Y5P6)
thermal stability z-score [1, 3]: -0.503
thermal stability z-score ([1]; arsenate co-treatment: none): -0.625
thermal stability z-score [2]: -0.104

MLEC (UniProt Q14165)
thermal stability z-score [1, 3]: -3.66
thermal stability z-score ([1]; arsenate co-treatment: none): -2.94
thermal stability z-score [2]: 0.385

SAFB2 (UniProt Q14151)
thermal stability z-score [1, 3]: 1.41
thermal stability z-score ([1]; arsenate co-treatment: none): 0.112
thermal stability z-score [2]: -0.545

ANO10 (UniProt Q9NW15)
thermal stability z-score [1, 3]: -0.0281
thermal stability z-score ([1]; arsenate co-treatment: none): -0.122
thermal stability z-score [2]: -0.262

RPLP0 (UniProt P05388)
thermal stability z-score [1, 3]: 1.08
thermal stability z-score ([1]; arsenate co-treatment: none): 0.341
thermal stability z-score [2]: -0.4

PTPRK (UniProt Q15262)
thermal stability z-score [1, 3]: -1.17
thermal stability z-score ([1]; arsenate co-treatment: none): -0.25
thermal stability z-score [2]: 0.129

DCTN6 (UniProt O00399)
thermal stability z-score [1, 3]: -0.771
thermal stability z-score ([1]; arsenate co-treatment: none): -0.761
thermal stability z-score [2]: -0.333

MKRN2 (UniProt Q9H000)
thermal stability z-score [1, 3]: 0.303
thermal stability z-score ([1]; arsenate co-treatment: none): 0.829
thermal stability z-score [2]: -0.0571

PPP6R1 (UniProt Q9UPN7)
thermal stability z-score [1, 3]: -0.476
thermal stability z-score ([1]; arsenate co-treatment: none): -0.635
thermal stability z-score [2]: -0.671

PDXDC1 (UniProt Q6P996)
thermal stability z-score [1, 3]: -0.964
thermal stability z-score ([1]; arsenate co-treatment: none): -0.497
thermal stability z-score [2]: 0.73

NOLC1 (UniProt Q14978)
thermal stability z-score [1, 3]: 0.36
thermal stability z-score ([1]; arsenate co-treatment: none): 0.113
thermal stability z-score [2]: -0.695

PDCD6IP (UniProt Q8WUM4)
thermal stability z-score [1, 3]: 1.3
thermal stability z-score ([1]; arsenate co-treatment: none): 1.06
thermal stability z-score [2]: 2.4

FAM103A1 (UniProt Q9BTL3)
thermal stability z-score [1, 3]: 1.17
thermal stability z-score ([1]; arsenate co-treatment: none): 0.62
thermal stability z-score [2]: -0.0441

RAP1GAP2 (UniProt Q684P5)
thermal stability z-score [1, 3]: 1.12
thermal stability z-score ([1]; arsenate co-treatment: none): 0.923
thermal stability z-score [2]: 0.124

TPMT (UniProt P51580)
thermal stability z-score [1, 3]: 0.308
thermal stability z-score ([1]; arsenate co-treatment: none): 0.31
thermal stability z-score [2]: -0.162

ACSL1 (UniProt P33121)
Sequence of UniProt P33121 (P33121 whole entry): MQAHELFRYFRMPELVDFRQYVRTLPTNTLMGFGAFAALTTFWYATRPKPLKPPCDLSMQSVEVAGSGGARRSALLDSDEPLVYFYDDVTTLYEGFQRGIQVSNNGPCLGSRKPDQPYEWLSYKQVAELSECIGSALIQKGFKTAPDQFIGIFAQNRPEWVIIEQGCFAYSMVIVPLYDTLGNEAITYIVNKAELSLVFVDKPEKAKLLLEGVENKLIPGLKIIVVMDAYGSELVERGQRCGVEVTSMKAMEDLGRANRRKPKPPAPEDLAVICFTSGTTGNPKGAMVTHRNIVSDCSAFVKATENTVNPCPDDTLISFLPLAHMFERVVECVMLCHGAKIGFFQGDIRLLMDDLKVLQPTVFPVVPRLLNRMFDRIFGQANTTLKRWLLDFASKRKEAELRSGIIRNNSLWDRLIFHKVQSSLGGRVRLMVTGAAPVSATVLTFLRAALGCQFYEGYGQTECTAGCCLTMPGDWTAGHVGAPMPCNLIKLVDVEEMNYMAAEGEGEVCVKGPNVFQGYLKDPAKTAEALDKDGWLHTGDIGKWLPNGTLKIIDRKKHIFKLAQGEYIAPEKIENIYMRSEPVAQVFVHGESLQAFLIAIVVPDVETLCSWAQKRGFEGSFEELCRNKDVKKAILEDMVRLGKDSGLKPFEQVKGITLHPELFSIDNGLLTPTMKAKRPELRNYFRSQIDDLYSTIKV
thermal stability z-score [1, 3]: 0.922
thermal stability z-score ([1]; arsenate co-treatment: none): 0.82
thermal stability z-score [2]: 0.682

LIMS1 (UniProt P48059)
thermal stability z-score [1, 3]: -0.604
thermal stability z-score ([1]; arsenate co-treatment: none): -0.589
thermal stability z-score [2]: -2.08

UBE2E1 (UniProt P51965)
Sequence of UniProt P51965 (P51965 whole entry): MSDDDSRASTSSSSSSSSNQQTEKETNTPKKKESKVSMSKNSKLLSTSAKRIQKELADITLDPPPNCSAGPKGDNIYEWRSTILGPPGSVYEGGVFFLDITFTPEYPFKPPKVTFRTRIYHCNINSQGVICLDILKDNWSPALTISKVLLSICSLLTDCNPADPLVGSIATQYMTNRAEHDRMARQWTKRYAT
thermal stability z-score [1, 3]: 0.456
thermal stability z-score ([1]; arsenate co-treatment: none): 0.441
thermal stability z-score [2]: 11.8

RPP38 (UniProt P78345)
Sequence of UniProt P78345 (P78345 whole entry): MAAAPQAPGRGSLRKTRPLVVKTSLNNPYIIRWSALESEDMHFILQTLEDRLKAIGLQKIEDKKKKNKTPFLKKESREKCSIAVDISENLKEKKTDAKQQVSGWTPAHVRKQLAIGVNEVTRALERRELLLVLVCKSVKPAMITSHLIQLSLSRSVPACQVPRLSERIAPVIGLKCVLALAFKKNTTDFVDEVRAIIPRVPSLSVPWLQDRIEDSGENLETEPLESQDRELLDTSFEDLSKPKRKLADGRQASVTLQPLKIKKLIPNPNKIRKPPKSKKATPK
thermal stability z-score [1, 3]: -0.128
thermal stability z-score ([1]; arsenate co-treatment: none): 0.146
thermal stability z-score [2]: -0.347

BCOR (UniProt Q6W2J9)
thermal stability z-score [1, 3]: 0.0203
thermal stability z-score ([1]; arsenate co-treatment: none): 0.0502
thermal stability z-score [2]: -0.011

FXN (UniProt Q16595)
thermal stability z-score [1, 3]: 0.688
thermal stability z-score ([1]; arsenate co-treatment: none): 0.447
thermal stability z-score [2]: 1.14
